Measured values as given in US9556196B2, “Anti-platelet compound addition salt” (GUANGZHOU HEERSHI PHARMA DEVELOPMENT CO., LTD, priority 2011, dated 2017).
Structures can show the parent of a compound that is named as a salt. Where two headings read alike, the source gives them in different places.

Assays:
wistar rat [1] = assay: Arteriovenous shunt thrombosis in polyethylene tube method (weight of thrombosis); format: in vivo; conditions: oral gavage, consecutive 3 days, 2 hours after the last administration, shunt lasted 15 min, wet or dry weight not stated
Protocol: II. Investigation on the Weight of Thrombosis
(§1) Animal: wistar rat, 220-260 g in weight, male, 6-8 each group.
Grouping: the same as above.
Method: Arteriovenous shunt thrombosis in polyethylene tube method.
Index Observed The drug was administrated for consecutive 3 days. 2 hours after the last administration, arteriovenous anastomosis thrombosis was lasted for 15 min, the wet weight and dry weight of the thrombosis formed was investigated.

[2] = Accelerated stability test of the sulfonates formulated into tablets or capsules; format: physicochemical; conditions: tablets or capsules with excipients, 50° C.±2° C., relative humid of 75% ±5%, end of the third month, TLC, stable = no occurrence of impurity
Protocol: A solid active ingredient with excellent stability is necessary for a solid formulation. To screen a suitable salt with chemical stability, the sulfonates prepared above was formulated into tablets or capsules with powdered excipients. The tablets included microcrystalline cellulose and anhydrous calcium dihydrogen phosphate with a ratio of 1:1. The capsules included Mannitol and Corn starch with a ratio of 4:1. And then, the tablets and the capsules were placed at the temperature of 50° C.±2° C. (incubator with constant temperature and humidity) with relative humid of 75% ±5% (saturated sodium chloride solution) for accelerated test. Sampling at the end of the third month, the tablets and the capsules were crushed and extracted with methanol:chloroform (1:1), and TLC was used to check the stability of the product and the salt was deemed as stable with no occurrence of impurity.

[3] = Solubility test for several solid acid addition salts; format: physicochemical
Protocol: The Solubility Test for Several Solid Acid Addition Salt
In general, it is necessary for a drug with good bioavailability to have a good solubility. Typically, the desired solubility of a drug in a pH range of 1-7.5 is at least 1 mg/ml.

wistar rat [4] = assay: Current injury carotid artery thrombosis method (time of thrombosis formation); format: in vivo; conditions: oral gavage, consecutive 3 days, 2 hours after the last administration
Protocol: To compare the pharmacologic effect between the screened salts and the free compound of formula I, the following arterial thrombosis test was carried out with clopidogrel as the positive drug.
I. Investigation on the Time of Thrombosis Formation,
as §1
Grouping: control group, positive drug group (clopidogrel, 10 mg/kg), free compound of formula I, hydrochloride of the compound of formula I and L-camphor sulfonate of the compound of formula I (two dosages for each group, 3 and 9 mg/kg respectively based on the free compound of formula I).
Method: current injury carotid artery thrombosis method and platelet aggregation test.
Drug Administration: oral gavage.
Index observed: the drug was administrated for consecutive 3 days. 2 hours after the last administration, current injury carotid artery thrombosis method was carried out to observe the time of thrombosis formation. Femoral artery blood was sampled and separated to obtain the platelet. The effect on platelet aggregation was investigated with inducing agent ADP for each group, and at the same time, the bleeding time was determined.

[5] = Water solubility of the free compound (inventor's research); format: physicochemical
[6] = Stability of the free compound in aqueous solution with weak acid or base; format: physicochemical; conditions: presence of weak acid or base in an aqueous solution for a period of time; produces degradation products
[7] = 3 mg/kg based on the free compound of formula I
[8] = 9 mg/kg based on the free compound of formula I

Row | SMILES | Weight of thrombosis (wistar rat [1]; [7]) | Weight of thrombosis (wistar rat [1]; [8]) | Stability [2] | Solubility [3] [µg/mL] | Thrombosis formation time (wistar rat [4]; [7]) | Thrombosis formation time (wistar rat [4]; [8]) | other results
1 | COC(=O)C(c1ccccc1Cl)N1CCc2sc(OC(=O)c3ccccc3OC(C)=O)cc2C1 [L-camphor sulfonate] | 3.0 ± 0.7#,Y mg | 2.5 ± 0.4 H,&,Y mg | Stable | 4700 | 250.4 ± 35.2 ,Y,* s | 360.2 ± 55.9#,H,&,Y,* s | Stability ([2]; listed as camphor sulfonate): the most stable one
2 | COC(=O)C(c1ccccc1Cl)N1CCc2sc(OC(=O)c3ccccc3OC(C)=O)cc2C1 (centres unmarked) [Hydrobromide] | – | – | – | 500 | – | – | –
3 | COC(=O)[C@H](c1ccccc1Cl)N1CCc2sccc2C1 [Clopidogrel, clopidogrel, reference compound] | – | – | – | – | – | – | Weight of thrombosis (wistar rat [1]; 10 mg/kg): 3.2 ± 0.5 mg; Thrombosis formation time (wistar rat [4]; 10 mg/kg): 249.9 ± 58.0 s
4 | COC(=O)C(c1ccccc1Cl)N1CCc2sc(OC(=O)c3ccccc3OC(C)=O)cc2C1 (centres unmarked) [Methanesulfonate] | – | – | Stable | 8200 | – | – | –
5 | COC(=O)C(c1ccccc1Cl)N1CCc2sc(OC(=O)c3ccccc3OC(C)=O)cc2C1 (centres unmarked) [Hydrochloride] | 3.2 ± 0.7#,Y mg | 2.8 ± 0.5 mg | – | 20 | 210.4 ± 51.1 s | 319.6 ± 35.2#,H,&,Y s | –
6 | COC(=O)C(c1ccccc1Cl)N1CCc2sc(OC(=O)c3ccccc3OC(C)=O)cc2C1 (centres unmarked) [Benzenesulfonate] | – | – | – | – | – | – | Solubility ([3]; read-out: Solubility): 2500 µg/mL
7 | COC(=O)C(c1ccccc1Cl)N1CCc2sc(OC(=O)c3ccccc3OC(C)=O)cc2C1 (centres unmarked) [Free Base, methyl 2-(2-chlorophenyl)-2-(2-acetyl-salicylic acyloxy-4,5,6,7-tetrahydro-thieno[3,2-C]pyridine)-5-acetate] | 4.0 ± 0.6 mg | 3.0 ± 0.5#,& mg | – | – | 165 ± 22.4 s | 261 ± 54.3#,& s | Water solubility (in words) [5]: almost insoluable in water; Stability (in words) [6]: not stable enough
8 | COC(=O)C(c1ccccc1Cl)N1CCc2sc(OC(=O)c3ccccc3OC(C)=O)cc2C1 (centres unmarked) [P-toluenesulfonate] | – | – | Stable | 1200 | – | – | –
